Legend:
[1] = Test of hydrogen sulfide detection sensitivity (% decomplexation with NaHS, radio-TLC); type: physicochemical; settings: 37° C. for 15 minutes
Experimental: To measure hydrogen sulfide detection sensitivity of the ^64Cu-labeled complex compound according to the present disclosure, the following experiment was performed.
About 45 μCi-55 μCi of ^64Cu-labeled complex compound (250 μL of triple distilled water) was mixed with various concentrations of NaHS solution (250 µL of triple distilled water), and stirred at 37° C. for 15 minutes (a total volume used in the reaction was equally 500 μL). After completion of the reaction, the resulting products were strongly stirred to mix appropriately.
Formation of copper sulfide (^64CuS) was confirmed by quantification of % decomplexation by using a radio-TLC scanner, and results are shown in the following Tables 2 and 3.

[2] = Test of hydrogen sulfide detection over time (^64CuS formation, radio-TLC); type: physicochemical; design: unit not given here; settings: 100 μM NaHS, 37° C.
Experimental: To examine reactivity of the ^64Cu-labeled complex compound according to the present disclosure over time, the following experiment was performed.
A detailed experimental method is as follows.
About 45 μCi-50 μCi of ^64Cu-labeled complex compound (250 μL of triple distilled water) was mixed with 100 μM of NaHS solution ([…] of triple distilled water), and stirred at 37° C. for 15 minutes. Formation of copper sulfide (^64CuS) was quantified by using a radio-TLC scanner.

[3] = Test of hydrogen sulfide selectivity (overall statements); type: physicochemical
Experimental: (§1) In addition to hydrogen sulfide, many different anions, radicals, etc. exist in the body. Therefore, to examine selective reactivity of the ^64Cu-labeled complex compound according to the present disclosure for sulfide ions, the following experiment was performed.
(§2) About 45 μCi-55 μCi of the ^64Cu-labeled complex compound (250 μL of triple distilled water) was mixed with 100 μM of various anion solutions (250 μL of triple distilled water) including biothiol, and stirred at 37° C. for 15 minutes.
(§3) Formation of copper sulfide (^64CuS) was quantified by using a radio-TLC scanner.
(§4) Various biothiol or salt solutions were prepared by dissolving the compounds in triple distilled water.
(§5) In Table, concentrations of all biothiols and other competitive materials are 100 μM. Further, specific concentrations of biothiols, anions, and oxidants used in Table are as follows: [L-Cys (1 mM); L-Hcys (10 mM); GSH (10 mM); DL-dithiothretitol (DTT, 100 μM); L-ascorbic acid (L-AsA, 10 mM); 2-mercaptoethanol (2-ME, 10 mM); NaCl (10 mm); KI (1 mM); Na2S2O3 (1 mM); Na2S2O5 (1 mM); NaOAc (1 mM); H2O2 ([…]); NaClO4 (100 μM); NaHCO3 (100 μM); NaNO2 ([…]); NaN3 (100 μM); ATB 337 (100 μM); diallyl trisulphide (100 μM)].

[4] = Hydrogen sulfide selectivity test: decomplexation by Cys; type: physicochemical; settings: 100 μM or L-Cys (1 mM), 37° C. for 15 minutes
Experimental: as §1, §2, §3, §4, §5

[5] = Hydrogen sulfide selectivity test: decomplexation by Hcys; type: physicochemical; settings: 100 μM or L-Hcys (10 mM), 37° C. for 15 minutes
Experimental: as §1, §2, §3, §4, §5

[6] = Hydrogen sulfide selectivity test: decomplexation by GSH; type: physicochemical; settings: 100 μM or GSH (10 mM), 37° C. for 15 minutes
Experimental: as §1, §2, §3, §4, §5

[7] = Hydrogen sulfide selectivity test: decomplexation by DTT; type: physicochemical; settings: DL-dithiothretitol (DTT, 100 μM); 37° C. for 15 minutes
Experimental: as §1, §2, §3, §4, §5

[8] = Hydrogen sulfide selectivity test: decomplexation by L-AsA; type: physicochemical; settings: L-ascorbic acid; 100 μM or (L-AsA, 10 mM); 37° C. for 15 minutes
Experimental: as §1, §2, §3, §4, §5

[9] = Hydrogen sulfide selectivity test: decomplexation by ME; type: physicochemical; settings: 2-mercaptoethanol; 100 μM or (2-ME, 10 mM); 37° C. for 15 minutes
Experimental: as §1, §2, §3, §4, §5

[10] = Hydrogen sulfide selectivity test: decomplexation by NaCl; type: physicochemical; settings: 100 μM or NaCl (10 mm), 37° C. for 15 minutes
Experimental: as §1, §2, §3, §4, §5

[11] = Hydrogen sulfide selectivity test: decomplexation by Kl; type: physicochemical; settings: 100 μM or KI (1 mM), 37° C. for 15 minutes
Experimental: as §1, §2, §3, §4, §5

[12] = Hydrogen sulfide selectivity test: decomplexation by Na2S2O3; type: physicochemical; settings: 100 μM or (1 mM), 37° C. for 15 minutes
Experimental: as §1, §2, §3, §4, §5

[13] = Hydrogen sulfide selectivity test: decomplexation by Na2S2O5; type: physicochemical; settings: 100 μM or (1 mM), 37° C. for 15 minutes
Experimental: as §1, §2, §3, §4, §5

[14] = Hydrogen sulfide selectivity test: decomplexation by NaOAc; type: physicochemical; settings: 100 μM or (1 mM), 37° C. for 15 minutes
Experimental: as §1, §2, §3, §4, §5

[15] = Hydrogen sulfide selectivity test: decomplexation by H2O2; type: physicochemical; settings: H2O2 (100 µM); 37° C. for 15 minutes
Experimental: as §1, §2, §3, §4, §5

[16] = Hydrogen sulfide selectivity test: decomplexation by NaClO4; type: physicochemical; settings: NaClO4 (100 μM); 37° C. for 15 minutes
Experimental: as §1, §2, §3, §4, §5

[17] = Hydrogen sulfide selectivity test: decomplexation by NaHCO3; type: physicochemical; settings: NaHCO3 (100 μM); 37° C. for 15 minutes
Experimental: as §1, §2, §3, §4, §5

[18] = Hydrogen sulfide selectivity test: decomplexation by NaNO2; type: physicochemical; settings: NaNO2 (100 µM); 37° C. for 15 minutes
Experimental: as §1, §2, §3, §4, §5

[19] = Hydrogen sulfide selectivity test: decomplexation by NaN3; type: physicochemical; settings: NaN3 (100 μM); 37° C. for 15 minutes
Experimental: as §1, §2, §3, §4, §5

[20] = Hydrogen sulfide selectivity test: decomplexation by ATB 337; type: physicochemical; settings: ATB 337 (100 μM); 37° C. for 15 minutes
Experimental: as §1, §2, §3, §4, §5

[21] = Hydrogen sulfide selectivity test: decomplexation by DAT (diallyl trisulphide); type: physicochemical; settings: DAT = diallyl trisulphide (100 μM); 37° C. for 15 minutes
Experimental: as §1, §2, §3, §4, §5

[22] = system: Paw inflammation model; type: in vivo, Balb/c or ICR mice; settings: for selective uptake in inflamed sites: optical imaging and nuclear medicine imaging
Experimental: (1) Paw Pain Inflammation Model
A small amount of CFA (complete Freund's adjuvant) or formalin was injected into only one paw (right) of the hind paws of Balb/c or ICR mice to establish inflammation models. 1 day after injection of the inflammation inducer, the mice were used in imaging or other in vivo experiments.
It is a known fact that inflamed sites show high concentrations of hydrogen sulfide.
Nuclear medicine imaging was measured by using an Inveon PET/CT system of Siemens Healthcare, and optical imaging was measured by using IVIS spectrum CT equipment. Cherenkov radiation emitted from ^64Cu was measured by using a highly sensitive CCD (charge-coupled device) camera.
Imaging was measured for 1 minute to 5 minutes, and a radiation dose was about 50 μCi to 2000 μCi, and photographs were variously taken as needed, such as immediately after first injection, at 1 hour, 4 hours, and 24 hours later.

[23] = Retention/excretion after injection into sites on the backs of rats (optical imaging); type: in vivo; settings: about 0.48 mCi injected into sites on the backs of rats
Experimental: Next, at the beginning of the second experiment, about 0.48 mCi of ^64Cu(II) ion, ^64CuS, ^64Cu-labeled complex compound according to Example 1, and ^64Cu-labeled complex compound according to Example 16 were injected into four sites on the backs of the same rats, respectively. Immediately, optical images were taken and shown in a lower left image of FIG. 4. A photograph taken after 4 hours was shown in a lower right image of FIG. 4.

[24] = system: colon carcinoma cell CT-26; assay: Cellular uptake test under various NaHS concentrations (gamma counter); type: cell-based; settings: CT-26 cells
Experimental: Cellular drug uptake is an important prognostic factor in the diagnosis of diseases. Therefore, to examine cellular uptake of the ^64Cu-labeled complex compounds according to the present disclosure, experiments for measuring changes in the cellular uptake under various concentrations of hydrogen sulfide were performed.
A colon carcinoma cell CT-26 was seeded in each plate at a density of 5×10^6, and then 10 μCi-300 μCi of ^64Cu-labeled complex compound of Examples 1, 7 or 9 according to the present disclosure was treated thereto, followed by incubation for 10 minutes. The cells were washed with PBS, and then 0 μM, 1 μM, or 50 μM of NaHS solution was added thereto, followed by incubation for 5 minutes. Thereafter, the cells were washed with PBS, and then cells were removed from the plate by adding trypsin and EDTA, followed by centrifugation. Supernatants were discarded and radiation of remaining cells was measured by using a gamma counter.

| Structure (SMILES) | % decomplexation ([1]; NaHS 0 μM) [%] | % decomplexation ([1]; NaHS 1 μM) [%] | % decomplexation ([1]; NaHS 10 μM) [%] | % decomplexation ([1]; NaHS 15 μM) [%] | % decomplexation ([1]; NaHS 20 μM) [%] | % decomplexation ([1]; NaHS 50 μM) [%] | % decomplexation ([1]; NaHS 100 μM) [%] | Formation of copper sulfide (^64CuS) over time ([2]; 10 sec) | Formation of copper sulfide (^64CuS) over time ([2]; 30 sec) | Formation of copper sulfide (^64CuS) over time ([2]; 60 sec) | Formation of copper sulfide (^64CuS) over time ([2]; 5 min) | Formation of copper sulfide (^64CuS) over time ([2]; 10 min) | Formation of copper sulfide (^64CuS) over time ([2]; 15 min) | selective reactivity with hydrogen sulfide versus biothiol compounds or anions, in words [3] | Decomplexation [%] [4] [%] | Decomplexation [%] [5] [%] | Decomplexation [%] [6] [%] | Decomplexation [%] [7] [%] | Decomplexation [%] [8] [%] | Decomplexation [%] [9] [%] | further results |
| --- | --- | --- | --- | --- | --- | --- | --- | --- | --- | --- | --- | --- | --- | --- | --- | --- | --- | --- | --- | --- | --- |
| C1C[N]2CCC[N]3CCC[N](C1)[64Cu]23 [Example 21] | 0 | 0 | 6.2 | 10 | 58 | 63 | 100 | 52 | 72 | 100 | 100 | 100 | 100 | did not selectively react with hydrogen sulfide | 9 ± 3 | 30 ± 5 | 33 | 25 | 4 ± 2 | 2 ± 2 | Decomplexation [%] [10]: 0.4 ± 0.2%; Decomplexation [%] [11]: 0.3%; Decomplexation [%] [12]: 3 ± 1%; Decomplexation [%] [13]: 4 ± 2%; Decomplexation [%] [14]: 1%; Decomplexation [%] [15]: 3%; Decomplexation [%] [16]: 2 ± 1%; Decomplexation [%] [17]: 0.9%; Decomplexation [%] [18]: 0.5%; Decomplexation [%] [19]: 0.5%; Decomplexation [%] [20]: 6 ± 2%; Decomplexation [%] [21]: 49 ± 2%; selective uptake in inflamed sites [22]: selective uptake |
| C1COCCNCCOCCN1.[64Cu+2] [Example 3] | 0 | 0 | 3 | 6 | 79 | 100 | 100 | 62 | 70 | 75 | 100 | 100 | 100 | did not selectively react with hydrogen sulfide | 0.4 | 27 ± 3 | 48 | 45 ± 2 | 15 | 16 | Decomplexation [%] [10]: 0.3%; Decomplexation [%] [11]: 0.1%; Decomplexation [%] [12]: 19 ± 5%; Decomplexation [%] [13]: 5%; Decomplexation [%] [14]: 15%; Decomplexation [%] [15]: 0.4%; Decomplexation [%] [16]: 0.4%; Decomplexation [%] [17]: 0.3%; Decomplexation [%] [18]: 0.5%; Decomplexation [%] [19]: 0.6%; Decomplexation [%] [20]: 3 ± 1%; Decomplexation [%] [21]: 100%; selective uptake in inflamed sites [22]: selective uptake |
| [Cu+2] [^64Cu(II) ion, reference compound] |  |  |  |  |  |  |  |  |  |  |  |  |  | reacted with various biothiol compounds or anions |  |  |  |  |  |  | retention time relative to ^64CuS [23]: about half of ^64CuS |
| [Cu+2].[S-2] [^64CuS, copper sulfide (^64CuS)] |  |  |  |  |  |  |  |  |  |  |  |  |  |  |  |  |  |  |  |  | excretion from / retention in the body, in words ([23]; images immediately and after 4 hours): remains for a long time in the body |
| CC1=NC(C)CNC(C)(C)CC(C)=NC(C)CNC(C)(C)C1.[64Cu+2] (stereo not shown) [Example 7] |  |  |  |  |  |  |  |  |  |  |  |  |  |  |  |  |  |  |  |  | Uptake (radiation of remaining cells, gamma counter) ([24]; NaHS Concentration 0 μM): 20000; Uptake (radiation of remaining cells, gamma counter) ([24]; NaHS Concentration 1 μM): 21000; Uptake (radiation of remaining cells, gamma counter) ([24]; NaHS Concentration 50 μM): 23000; uptake in inflamed paw versus opposite paw ([22]; optical and nuclear medicine imaging performed 2 hours later): higher uptakes |

Source: patent US10583206B2, “Radioactive probe for detecting hydrogen sulfide” (KYUNGPOOK NATIONAL UNIVERSITY INDUSTRY-ACADEMIC COOPERATION …, priority 2015, dated 2020)
